Experiment [1] concerns SKOV3-cisR cells. Briefly: Isotope labeling and SRS imaging. The class given is cell-based, human. As to conditions: BMS 5 μM, 10 μM or 20 μM for 24 hours, 100 μM PA-d31 for 6 hours. The procedure: (§1) For labeling with glucose-d7, media was replaced with glucose-free DMEM medium (Thermo Fisher Scientific, #11966025)+10% FBS+P/S supplemented with 25 mM glucose-d7 after seeding the cells in 35 mm glass-bottom dishes overnight. For labeling with FA or analogs, including PA-d31, OA-d34, and ODYA, FA or analogs were added to the culture media at final concentration of 100 μM and cells were treated for 6 h. For quantitative SRS imaging, cells on glass-bottom dishes were fixed with 10% neutral buffered formalin for 30 min and washed with PBS for 3 times. Hyperspectral SRS imaging was performed to the cells at Raman spectral region from 2100 to 2300 cm^−1.
(§2) To identify the source of increased lipid content in cisplatin-resistant ovarian cancer cells, the contribution of de novo lipogenesis and of fatty acid uptake were examined, respectively. Using a stable isotope probing method, the level of lipogenesis was examined by feeding the cells with deuterium labeled glucose-d7. […] Quantitative analysis confirmed significant reduction of both signal intensity and relative area fraction in PEO4 cells when compared to PEO1 cells (FIG. 2B), indicating a decrease in glucose derived anabolism and de novo lipogenesis in cisplatin-resistant cells. […]

Experiment [2] has as its system OVCAR5-cisR cells. Briefly: Isotope labeling and SRS imaging. The class given is cell-based, human. Particulars: BMS 10 μM for 24 hours, 100 μM PA-d31 for 6 hours. The procedure:
as §1, §2

In experiment [3] the test system is SKOV3-cisR cells. Briefly: Cell viability assay (dose-response). It counts as cell-based, human. As to conditions: SKOV3-cisR cells. The procedure:
(§3) Cell viability was measured by MTS assay (Abcam, #ab197010) or by CellTiter-Glo™ assay (Promega, #G7570). Cells were seeded at 96-well plates at densities of 2000˜5000 cells per well overnight. Treatment was added to the cells at indicated concentrations for 72 h. Cell viability was measured by incubating with MTS reagent for 4 h and reading absorbance at 490 nm or incubating with CellTier-Glo™ reagent for 10 min and reading luminescence by a plate reader. Six replicates were used for each group.
(§4) In addition, isogenic PEO1/PEO4 cell lines derived from the same patient were studied, at the time of a platinum sensitive (PEO1) and platinum resistant-recurrence (PEO4).
(§5) Having shown decreased glucose-derived anabolism and increased fatty acid uptake in cisplatin-resistant ovarian cancer cells, whether this metabolic feature can be used for differentiation of cisplatin-resistant from cisplatin-sensitive cancer cells was explored. […] In Table 2 below, quantitation of glucose-d7 (G-d7), PA-d31, and OA-d34 are shown as area fraction of C-D signal out of total cellular area, in mean values.

The subject of the next experiment is SKOV3 cells. Briefly: Cell viability assay (dose-response). As to conditions: SKOV3 cells (sensitive). The class given is cell-based, human. How it is done:
as §3, §4, §5

The subject of another experiment is PEO1 cells. Briefly: Cell viability assay (dose-response). It counts as cell-based, human. Particulars: PEO1 cells (sensitive). How it is done: as §3, §4, §5
For a further experiment, the system named is PEO4 cells. Briefly: Cell viability assay (dose-response). It counts as cell-based, human. How it is done:
as §3, §4, §5

Experiment [4] has as its system OVCAR5 cells. Briefly: Cell viability assay (dose-response). It counts as cell-based, human. Particulars: OVCAR5 cells (sensitive). How it is done:
as §3, §4, §5

For experiment [5], the system named is OVCAR5-cisR cells. Briefly: Cell viability assay (dose-response). The class given is cell-based, human. The procedure: as §3, §4, §5
The test system of experiment [6] is SKOV3-cisR cells. Briefly: Large-area hyperspectral SRS imaging of lipids, single cell analysis. It counts as cell-based, human. Particulars: 10 μM C-75.
Method: Hyperspectral SRS imaging was performed on a lab-built system following previously published method [8]. The laser source was a femtosecond laser (InSight™ DeepSee™, Spectra-Physics™, Santa Clara, CA, USA) operating at 80 MHz with two synchronized output beams, a tunable pump beam ranging from 680 nm to 1300 nm, and a Stokes beam fixed at 1040 nm. For imaging at the C-H vibration region (2800˜3050 cm^−1), pump beam was tuned to 798 nm. The Stokes beam was modulated at 2.3 MHz by an acousto-optic modulator (1205-C, Isomet®). After combination, both beams were chirped by two 12.7 cm long SF57 glass rods and then sent to a laser-scanning microscope. The power of pump and Stokes beam before microscope was controlled to be 20 mW and 200 mW, respectively. […]
Lipid analysis in single cells were performed through the software CellProfiler™ [68]. […] Morphological information of each cell and lipid analysis, including LD number and intensity in single cells were measured and reported in the output results. […] For each sample, a few hundreds to a thousand of cells were analyzed.
An SRS spectrum was extracted at each pixel from the image stack. […] Finally, quantitative characterization of lipids in terms of integrated intensity, mean intensity, area, and lipid droplet size in each individual cell was performed.
A further experiment has as its system OVCAR5 xenografts. Briefly: OVCAR5 xenografts in mice treated with carboplatin. It counts as in vivo. As to conditions: 25 mg/kg carboplatin weekly i.p. for three cycles versus saline. How it is done:
Xenografts were obtained through intraperitoneally implantation of 2 million OVCAR5 cells in female (6-8 weeks old) athymic nude mice (Foxn1^nu, Envigo). Two weeks after inoculation, tumor harboring mice were treated with PBS (sensitive group, n=3) or 25 mg/kg carboplatin (resistant group, n=3) via weekly i.p. injection for three cycles. Tumors were collected and weighted one week after the last cycle and frozen. For SRS imaging, tumors were sectioned at […] thickness slices by cryostat. To isolate tumor cells from tissue, PBS and carboplatin treated xenografts were mechanically and enzymatically dissociated in Dulbecco's modified Eagle's medium/F12 (Thermo Fisher Scientific) containing collagenase (300 IU/ml, Sigma-Aldrich) and hyaluronidase (300 IU/ml, Sigma-Aldrich) for 2-4 hours at 37° C. […] To determine whether lipid accumulation also occurs in vivo in platinum-treated tumors, SRS imaging of lipids was performed in OVCAR5 xenografts collected from mice treated weekly with saline or carboplatin for three weeks. Tumor growth was suppressed by carboplatin treatment (FIG. 1N). […] (FIG. 1O). The results shown in FIGS. 1P-1Q indicate heterogenous lipid accumulation and higher lipid amount in the carboplatin-treated tumors compared with the platinum-sensitive tumors. Collectively, higher level of lipid content was a metabolic feature of cisplatin-resistant ovarian cancer cells.

Experiment [7] concerns platinum resistant PDX model. Briefly: Platinum resistant patient-derived xenograft (PDX) model. The class given is in vivo. As to conditions: day 14 to 37. The procedure:
The platinum resistant PDX model was developed as previously described. After passage through a donor animal, fresh tumor (equal size) was implanted subcutaneously (SC) in 20 female 7-8-week-old NSG mice (Jackson Labs, Cat #: JAX:00555). Tumor sizes were measured using calipers twice per week and tumor volumes were calculated according to the formula length×width^2/2. When the tumor volume reached 100 mm^3, the animals were randomized into four groups: vehicle, carboplatin alone (10 mg/kg weekly intraperitoneal (i.p.) injection), etomoxir alone (40 mg/kg daily i.p. injection), and combination of carboplatin (10 mg/kg weekly i.p. injection) and etomoxir (40 mg/kg daily i.p. injection). Body weights and habitus were monitored twice per week and mice were sacrificed when the largest tumor exceeded 1500 mm^3 or if human endpoints were reached earlier.
A patient-derived xenograft (PDX) model rendered platinum resistant through repeated exposure to carboplatin in vivo as described previously was used to test whether interruption of fatty acid oxidation could sensitize ovarian tumors to platinum in vivo.
A general note: A xenograft is tissue or cells of one species grown in another, often human tumour cells in immunodeficient mice.

Experiment [8] deals with OVCAR5 cells. Briefly: Fatty acid oxidation assay (extracellular oxygen consumption kit). It counts as cell-based, human. As to conditions: 40 μM etomoxir over 3 hours. The procedure: (§6) Fatty acid oxidation (FAO) was measured using a commercial kit (Abcam, #ab217602) following the provided protocol. Briefly, cells were seeded in 96-well plate with 150 k cells/well. After incubation overnight, medium was replaced. 10 μL of Extracellular O2 consumption reagent, and 2 drops of high-sensitivity mineral oil (pre-heated at 37° C.) were added to each well. Fluorescence was measured in plate reader at 2 min intervals for 180 min at excitation/emission=380/650 nm. Etomoxir was added at final concentration of 40 μM to block FAO. Oxygen consumption rate (OCR) is presented as AFluorescence intensity/Min/cell and FAO rate is calculated as OCRFAO=OCRtotal−OCREtomoxir. At least three replicates were included for each measurement.

The test system of experiment [9] is OVCAR5-cisR cells. The experiment is described as above. It counts as cell-based, human. Particulars: 40 μM etomoxir over 3 hours. How it is done:
as §6

The subject of experiment [10] is OVCAR5 cells. Briefly: OCR and ECAR by Seahorse analysis. The class given is cell-based, human. As to conditions: etomoxir treatment. How it is done:
(§7) Cell lines were seeded in a Seahorse® XF96 Cell Culture Microplate (Agilent) at density of 6×10^4 (OVCAR5 pair) or 4×10^4 (PEO pair) per well. After incubation at 37° C. overnight for cell attachment, OCR, and extracellular acidification rate (ECAR) were measured through Seahorse® XFe96 Analyzer (Agilent). Measurement time was 30 seconds following 3 minutes mixture and 30 seconds waiting time. First three cycles were used for basal respiration measurement. […] Basal respiration, ATP production and maximal respiration reduction were calculated following the manufacturer's instructions.

Experiment [11] relates to OVCAR5-cisR cells. Briefly: OCR and ECAR by Seahorse analysis. It counts as cell-based, human. Particulars: etomoxir treatment. The procedure: as §7
The next experiment concerns COV362-cisR cells. Briefly: Cell viability assay (dose-response). It counts as cell-based, human. The procedure: as §3, §4, §5
Experiment [12] deals with OVCAR5-cisR cells. Briefly: ATP/ADP assay. It counts as cell-based, human. As to conditions: 3.3 μM cisplatin with 100 μM palmitic acid for 6 hours. The procedure:
NADP/NADPH and ADP/ATP were measured by using commercial kits (Abcam, #ab65349 and #ab65313). For NADPH measurement, cells (˜1×10^6 cells) were pelleted and extracted using NADPH/NADP extraction buffer. Total NADP/NADPH was directly measured using the assay kit and NADPH alone was measured after decomposing NADP by heating at 60° C. for 30 min. Absorption at 450 nm was measured by plate reader (Molecular Devices, SpectraMax i3x). For ATP measurement, cells were seeded in 96-well plates. ATP was measured directly and total ATP+ADP was measured by converting ADP to ATP. The luminescent signal was measured by plate reader. At least three replicates were included for each measurement.

SMILES strings stand for the structures.

On to `CCc1c(-c2ccccc2)c(-c2ccccc2)nn1-c1ccccc1-c1cccc(OCC(=O)O)c1` [BMS309403], for which the “fatty acid uptake (C-D SRS signal intensity)” value in the experiment with SKOV3-cisR cells [1] is “Suppression of fatty acid uptake”. Also, the “PA-d31 uptake (C-D SRS signal intensity)” value in the experiment on OVCAR5-cisR cells [2] is listed as “significantly reduced”. Besides, the “dose-response to cisplatin with supplemental BMS treatment” value is listed as “reduced resistance to cisplatin” in the experiment with SKOV3-cisR cells [3]; “less obvious” with SKOV3 cells; “less obvious” in the experiment with PEO1 cells; “reduced resistance to cisplatin” in the experiment with PEO4 cells (PEO4 cells); “less obvious” in the experiment on OVCAR5 cells [4]; “reduced resistance to cisplatin” in the experiment on OVCAR5-cisR cells [5] (OVCAR5-cisR cells).

As for `C=C1C(=O)OC(CCCCCCCC)C1C(=O)O` (centres unmarked) [C-75], the “increased lipid content in SKOV3-cisR compared with SKOV3” value with SKOV3-cisR cells [6] is recorded as “did not affect the increased lipid content”.

Turning to `N.N.O=C([O-])C1(C(=O)[O-])CCC1.[Pt+2]` [carboplatin], in the experiment with OVCAR5 xenografts, the “Tumor growth (weights of xenografts)” value is “suppressed”. Besides, the “tumor growth (total tumor volume)” value in experiment [7] (carboplatin alone, 10 mg/kg weekly i.p.) is on record as “slight reduction of tumor growth”.

Turning to `CCOC(=O)[C@@]1(CCCCCCOc2ccc(Cl)cc2)CO1` [etomoxir], the oxygen consumption entry in the experiment with OVCAR5 cells [8] is “did not induce an obvious change”; in the experiment with OVCAR5-cisR cells [9] it was “significantly reduced”. Further, the “OCR (Seahorse FAO assay)” value with OVCAR5 cells [10] is “less sensitive”; with OVCAR5-cisR cells [11], “obvious reduction of OCR”. The “dose-response to cisplatin curves with etomoxir treatment” value is “significantly left shifted” with COV362-cisR cells (COV362-cisR cells, etomoxir 40 μM); “significantly left shifted” with PEO4 cells (PEO4 cells, etomoxir 40 μM); “significantly left shifted” in the experiment on OVCAR5-cisR cells [5] (OVCAR5-cisR cells, etomoxir 40 μM). In addition, the “dose-response to etomoxir, compared to parental cell line” value with COV362-cisR cells (COV362-cisR versus COV362), in the experiment on PEO4 cells (PEO4 versus PEO1) and in the experiment with OVCAR5-cisR cells [5] (OVCAR5-cisR versus OVCAR5) was “Higher sensitivity” throughout. Besides, the “tumor growth (total tumor volume)” value in [7] (etomoxir alone, 40 mg/kg daily i.p.) was “slight reduction of tumor growth”.

In the case of `CCCCCCCCCCCCCCCC(=O)O` [palmitic acid], in the experiment with OVCAR5-cisR cells [12], the “ATP level (ATP/ADP ratio) on supplementation” value is listed as “significantly increased”.
